This is an account of results in patent US8802661B2, “C-28 amides of modified C-3 betulinic acid derivatives as HIV maturation inhibitors” (priority 2010, dated 2014).

This assay relates to recombinant NL4-3 virus (Renilla luciferase in nef, Gag P373S). Kind of assay: HIV Cell Culture Assay (luciferase reporter virus in MT-2 cells). It counts as cell-based. The following applies: NL43, read-out: EC50 Group. In outline: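 Luciferase signal is the read-out: after 4-5 days of infection in the presence of serially diluted compound, MT-2 cells are lysed with a premix of lysis buffer, luciferase reagent and Stop & Glo substrate, and luminescence is read immediately.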
In general terms: Reporter assays use an easily measured gene product as a stand-in for the process of interest.

In general, EC50 refers to the concentration that produces a half-maximal response. As to `C=C(C)[C@@H]1CC[C@]2(C(=O)NCCCN)CC[C@]3(C)[C@H](CC[C@@H]4[C@@]5(C)CC=C(c6ccc(C(=O)O)cc6)C(C)(C)[C@@H]5CC[C@]43C)[C@@H]12` [Example 98, 4-((1R,3aS,5aR,5bR,7aR,11aS,11bR,13aR,13bR)-3a-(3-aminopropylcarbamoyl)-5a,5b,8,8,11a-pentamethyl-1-(prop-1-en-2-yl)-2,3,3a,4,5,5a,5b,6,7,7a,8,11,11a,11b,12,13,13a,13b-octadecahydro-1H-cyclopenta[a]chrysen-9-yl)benzoic acid], the EC50 is under 0.1 µM.
